≈ marks a conversion by molar mass, not a printed value.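 Results reflect a 48-hour exposure of cells in 96-well plates to compound at five concentrations. GI50 marks 50% less growth. TGI: total growth inhibition.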
Key:
Test in all cases: NCI anticancer screen, dose series, 48 h
[1] = tested on: 786-0 renal
[2] = tested on: HCT-116 colon
[3] = tested on: HT29 colon
[4] = tested on: IGROV1 ovarian
[5] = tested on: MOLT-4 leukemia
[6] = tested on: NCI-H226 lung
[7] = tested on: NCI-H460 lung
[8] = tested on: SF-295 CNS
[9] = tested on: HS 578T breast

Compound: COc1ccc(N2C(=O)[C@@H]3[C@@H]4CC(C)CC[C@@H]4c4c([nH]c5ccccc45)[C@@H]3C2=O)cc1 (stereo not given in full)
- TGI [1]: 20.6 µM
- TGI [2]: 20 µM
- TGI [3]: > 100 µM
- TGI [4]: 49.7 µM
- TGI [5]: 61.3 µM
- TGI [6]: 28.5 µM
- TGI [7]: 59.3 µM
- TGI [8]: 45 µM

Compound: CCOc1c2c(cc3c1C(=O)c1c(OC)cccc1C3=O)C=C(OC)CC2
- TGI [1]: > 25 µM
- TGI [2]: > 25 µM
- TGI [9]: > 25 µM
- TGI [3]: > 25 µM
- TGI [4]: > 25 µM
- TGI [5]: > 25 µM
- TGI [6]: > 25 µM
- TGI [7]: > 25 µM
- TGI [8]: > 25 µM

Compound: O=C(Cn1c(=O)oc2ccccc21)N(c1ccccc1)c1ccccc1
- TGI [1]: > 100 µM
- TGI [2]: > 100 µM
- TGI [9]: > 100 µM
- TGI [3]: > 100 µM
- TGI [4]: > 100 µM
- TGI [5]: > 100 µM
- TGI [6]: > 100 µM
- TGI [7]: > 100 µM
- TGI [8]: > 100 µM

Compound: O=C1OCc2nc3c(c(-c4ccccc4C(F)(F)F)c21)C(=O)OC3
- TGI [1]: > 100 µM
- TGI [2]: > 100 µM
- TGI [4]: > 100 µM
- TGI [5]: > 100 µM
- TGI [7]: > 100 µM
- TGI [8]: > 100 µM

Compound: O=C1C=C2SC3C[C@@]24CC1(O)[N+]1=c2c4c(c(O)c4c2=C(C=N4)CC1)N3
- TGI [2]: 0.492 µM
- TGI [3]: 1.01 µM
- TGI [4]: 2.98 µM
- TGI [5]: 0.859 µM
- TGI [6]: 3.44 µM
- TGI [7]: 4.26 µM
- TGI [8]: 2.95 µM

Compound: COC1=CC(=O)[C@@]2(C)C(C)[C@H](c3ccccc3)[C@H]2C1=O (stereo not given in full)
- TGI [1]: > 100 µM
- TGI [3]: > 100 µM
- TGI [4]: > 100 µM
- TGI [5]: > 100 µM
- TGI [6]: > 100 µM
- TGI [7]: > 100 µM
- TGI [8]: > 100 µM

Compound: Cc1c2ccncc2c(C)c2c1[nH]c1ccc(O)cc12
- GI50 [3]: 0.185 µg/mL
- TGI [3]: 1.23 µg/mL
- TGI [5]: 0.0671 µg/mL
- GI50 [6]: 0.137 µg/mL
- TGI [6]: 1.08 µg/mL
- GI50 [7]: 0.0157 µg/mL (≈ 0.0598 µM)
- TGI [7]: 0.0467 µg/mL
- GI50 [8]: 0.0181 µg/mL
- TGI [8]: 0.167 µg/mL

Compound: Cc1nc2nnc(CCCCCCCCc3nnc4nc(C)[nH]n34)n2[nH]1
- TGI [1]: > 100 µM
- TGI [2]: > 100 µM
- TGI [3]: > 100 µM
- TGI [4]: > 100 µM
- TGI [5]: > 100 µM
- TGI [6]: > 100 µM
- TGI [7]: > 100 µM
- TGI [8]: > 100 µM

Compound: O=C(CC(C(=O)c1ccsc1)c1cccs1)c1cccs1 (stereo not given)
- TGI [1]: > 100 µM
- TGI [2]: > 100 µM
- TGI [3]: > 100 µM
- TGI [4]: > 100 µM
- TGI [5]: > 100 µM
- TGI [6]: > 100 µM
- TGI [7]: > 100 µM
- TGI [8]: > 100 µM

Compound: CCC(C)C(NC(=O)c1cccc2c(=O)c3ccccc3[nH]c12)C(=O)O (stereo not given)
- TGI [1]: > 100 µM
- TGI [2]: > 100 µM
- TGI [9]: > 100 µM
- TGI [3]: > 100 µM
- TGI [4]: > 100 µM
- TGI [5]: > 100 µM
- TGI [6]: > 100 µM
- TGI [8]: > 100 µM

Compound: C=CC[PH+](c1ccccc1)c1ccccc1.C=CC[PH+](c1ccccc1)c1ccccc1.[Pt+2].[S-]c1nc2ccccc2[nH]1.[S-]c1nc2ccccc2[nH]1
- GI50 [3]: 2.62 µM
- TGI [3]: > 100 µM
- GI50 [5]: 2.87 µM
- TGI [5]: > 100 µM
- GI50 [6]: 1.95 µM
- TGI [6]: 4.48 µM
- GI50 [8]: 2.82 µM
- TGI [8]: 8.44 µM

Compound: COC(=O)c1sc2c(c1C(=O)OC)C(=Nc1ccc(OC)cc1)SC2=Nc1ccc(OC)cc1
- TGI [1]: 1.33 µM
- TGI [2]: 1.58 µM
- TGI [3]: 1.73 µM
- TGI [4]: 2.24 µM
- TGI [5]: 0.494 µM
- TGI [6]: 3.55 µM
- TGI [7]: 2.79 µM
- TGI [8]: 3.42 µM

Compound: COC(OC)c1cccc2c1C(=O)CCC1(CC2)OCCCCO1
- TGI [1]: > 100 µM
- TGI [2]: > 100 µM
- TGI [3]: > 100 µM
- TGI [4]: > 100 µM
- TGI [5]: > 100 µM
- TGI [6]: > 100 µM
- TGI [7]: > 100 µM
- TGI [8]: > 100 µM

Compound: Cc1c(CCCl)c(Cl)n2c(nc3ccccc32)c1C#N
- TGI [2]: 0.891 µM
- TGI [3]: 4.35 µM
- TGI [4]: 3.36 µM
- TGI [5]: 0.653 µM
- TGI [6]: 2.93 µM
- TGI [7]: 1.69 µM
- TGI [8]: 4.34 µM

Compound: CCN(CC)C(=O)Cc1[nH][nH]c(=O)c1C(=O)N(CC)CC
- TGI [1]: > 100 µM
- TGI [2]: > 100 µM
- TGI [3]: > 100 µM
- TGI [4]: > 100 µM
- TGI [5]: > 100 µM
- TGI [6]: > 100 µM
- TGI [7]: > 100 µM
- TGI [8]: > 100 µM

Compound: CN1C/C(=C\c2ccccc2)C2=NN(C(N)=S)[C@H](c3ccccc3)[C@@H]2C1
- TGI [1]: > 100 µM
- TGI [2]: > 100 µM
- TGI [3]: > 100 µM
- TGI [4]: > 100 µM
- TGI [5]: > 100 µM
- TGI [6]: > 100 µM
- TGI [7]: > 100 µM
- TGI [8]: > 100 µM

Compound: O=S(c1ccc(O)cc1)c1ccc(O)cc1
- TGI [1]: > 100 µM
- TGI [2]: > 100 µM
- TGI [3]: > 100 µM
- TGI [4]: > 100 µM
- TGI [5]: > 100 µM
- TGI [6]: > 100 µM
- TGI [7]: > 100 µM
- TGI [8]: > 100 µM

Compound: CC(=O)OC1COC(N2C(=O)C(=O)c3ccccc32)C(OC(C)=O)C1OC(C)=O (stereo not given)
- TGI [1]: > 100 µM
- TGI [3]: > 100 µM
- TGI [4]: > 100 µM
- TGI [5]: > 100 µM
- TGI [6]: > 100 µM
- TGI [7]: > 100 µM
- TGI [8]: > 100 µM

Compound: CCCC(O)c1ccc2[nH]c3c(C)cc([N+](=O)[O-])c(C)c3c2c1 (stereo not given)
- TGI [1]: > 100 µM
- TGI [2]: > 100 µM
- TGI [3]: > 100 µM
- TGI [5]: > 100 µM
- TGI [6]: > 100 µM
- TGI [7]: > 100 µM
- TGI [8]: > 100 µM

Compound: Cc1cc2c3ccccc3n3c2c2c1OC1(C)CCC(C2C1)C3(C)C (stereo not given)
- TGI [1]: > 25 µM
- TGI [2]: > 25 µM
- TGI [3]: > 25 µM
- TGI [4]: > 25 µM
- TGI [5]: > 25 µM
- TGI [6]: > 25 µM
- TGI [7]: > 25 µM
